Experimental data taken from US20050069513A1, “Amphiphilic compounds for pharmaceutical or cosmetic use” (Physica S.A.R.L., priority 2001, published 2005).

Assay: Formation of ion pair in aqueous phase: solubility / appearance of solutions
Type: physicochemical
Settings: acylamino acid dispersed in aqueous phase, milky white appearance
Source text: Two aqueous solutions are used. The first contains calcitonin. Due to the fact that the calcitonin is hydrophilic, the solution is clear. […] This second solution has a milky white appearance.
The obtained complex, calcitonin oleyl methyl glycine, is therefore amphiphilic.
Two aqueous solutions are used. The first contains lidocaine dispersed in the aqueous solution. […] This second solution has a milky white appearance.
The obtained complex, lidocaine oleyl glycine, is therefore amphiphilic.
A solution of NaOH in the quantity required for causing precipitation of all of the polymyxin E by deplacement of the sulphate salt is added to a solution of polymyxin E sulphate. Polymyxin E, also known as colistin, thereby goes back to its non-salified, basic structure. The resulting solution, solution B, is thus an aqueous phase with a precipitate of polymyxin E.
The polymyxin is thus resolubilized in the form of an amphiphilic complex, polymyxin E linoleyl glycine.

SMILES	solubility in water
CCCCCCCC/C=C\CCCCCCCCN(C)CC(=O)O [oleyl methyl glycine]	only slightly soluble in water
CCCCCCCC/C=C\CCCCCCCCNCC(=O)O [oleyl glycine]	only slightly soluble in water
CCCCC/C=C\C/C=C\CCCCCCCCNCC(=O)O [linoleyl glycine]	only slightly soluble in water
